Experimental data taken from patent US8623909B2, “Prophylactic/therapeutic agents for lifestyle-related diseases” (priority 2008, dated 2014).
Marks after values point to notes of the source that are not given here.

Assays:
Format in all cases: in vivo, rat
ORX rats [1] = assay: Femoral bone mineral density in ORX rats; details: solvent 465.3, sham 517.1
Experimental: (§1) 11-week-old, male Sprague-Dawley (SD) rats (320 to 340 g, purchased from Charles River Japan) were housed for 1 week in a room maintained at a light-dark cycle of 12 hours per day and controlled at a set temperature and humidity while allowing free access to a commercially available standard rodent diet and water.
(§2) After housing the animals, the animals were anesthetized with ether, and underwent bilateral orchiectomy (orchiectomized rats: ORX) or a sham treatment. After awaking from the anesthesia, the animals were assigned to test groups of 3 to 5 animals each. Starting on the day after surgery, the animals were subcutaneously injected once a day with an injection solution of the test compound (prepared by dissolving the test compound in a small amount of DMSO and diluting with olive oil for animal testing (consisting of 95% olive oil and 5% DMSO)) at the rate of 0.1 ml/100 g of body weight. After 21 days, the rats were sacrificed by exsanguination from the abdominal artery, the ventral prostates and anal levator muscle were excised and weighed followed by immersing in RNAlater (Nacalai Tesque) for extraction of RNA. In addition, soft tissue was removed from the right femur, and immersed in 75% ethanol followed by storage for subsequent measurement of the bone mineral density. Moreover, liver and visceral fat tissue were collected and immersed in RNAlater for RNA extraction.
(§3) The anabolic effect of compounds was studied by using as indicators changes in anal levator muscle weight and bone mineral density (BMD) of the femur and vertebra in the ORX rats treated in the aforementioned section (4)-1).
(§4) BMD value of epiphyseal cancellous bone of the femur and vertebra of ORX rats treated in the aforementioned section (4)-1) were measured using Scan Xmate-A100S (Comscantecno).

ORX rats [2] = assay: Vertebral bone mineral density in ORX rats; details: for Vertebral BMD: solvent 762.7, sham 770.8
Experimental: as §1, §2, §3, §4

ORX rats [3] = assay: Anal levator muscle weight in ORX rats (anabolic effect); details: for Anal levator muscle weight: 21 days, solvent 41.6, sham 73.1; for Change in anal levator muscle weight (in words): dihydrotestosterone 1 and 10 mg/kg, compound of formula (Ia) 10 mg/kg
Experimental: as §1, §2, §3
Anal levator muscle is a typical skeletal muscle localized around the rat rectum, and is considered to be sensitive to male steroid hormone. Although the anal levator muscle is considerably smaller in castrated rats as compared with normal male rats, its weight is well known to be able to be restored to normal by administration of androgen (J. Pharmacol. Exp. Ther., 91, 38-44). The results of measuring the weights of the anal levator muscle in the ORX rats obtained in section (4)-1) are shown in the following Table 7.

ORX rats [4] = assay: Plasma triglyceride level in ORX rats; details: for Effect on triglyceride levels (in words): 1 and 10 mg/Kg; for Plasma triglyceride concentration: solvent 130.7, sham 236.5
From the text: as §2, with “Starting on the day after surgery, the animals were subcutaneously injected once a day with an injection solution of the test compound (prepared by dissolving the test compound in a small amount of DMSO and diluting with olive oil for animal testing (consisting of 95% olive oil and 5% DMSO)) at the rate of 0.1 ml/100 g of body weight.” left out
Plasma triglyceride and cholesterol levels were measured to characterize the metabolic profiles of ORX rats treated in the aforementioned section (4)-1).

PPARδ mRNA = PPARδ mRNA in anal levator muscle of ORX rats; details: for PPARδ mRNA/GAPDH mRNA in anal levator muscle: solvent 1.0, sham 0.5; for Effect on PPARδ mRNA expression in anal levator muscle (in words): dihydrotestosterone 1 and 10 mg/kg, compound of formula (Ia) 10 mg/kg
Experimental: as §1, §2
(§5) Total RNA in various tissues of the ORX rats was isolated using the RNeasy Mini Kit or RNeasy Fibrous Tissue Mini Kit (Qiagen). 1 μg of this total RNA was subjected to reverse transcription using the QuantiaTect Reverse Transcription Kit (Qiagen). Next, cDNA was subjected to real-time PCR analysis using LightCycler (Roche Diagnostics) and each of the transcription products was quantified. Furthermore, PCR was carried out in 20 μl of a reaction mixture under the following conditions using SYBR Premix Ex Taq (Takara Biotechnology): 50 cycles consisting of denaturation for 5 seconds at 95° C., annealing for 20 seconds at 60° C. and elongation for 25 seconds at 72° C. In addition, glyceraldehyde-3-phosphate dehydrogenase (GAPDH) mRNA was simultaneously amplified as an internal standard, and the real-time PCR value of each transcription product were calculated as a relative value based on GAPDH.
In addition, expression levels of peroxisome proliferator activating factor receptor-delta (PPARδ) mRNA in anal levator muscle were also measured. This is because this nuclear receptor has been indicated to be related to β-oxidation of fatty acids and energy consumption in skeletal muscle (Proc. Natl. Acad. Sci. USA, 100, 15924-15929). Furthermore, measurements were carried out using a similar method as that previously described.

UCP-1 mRNA = UCP-1 mRNA level in visceral fat of ORX rats; details: for UCP-1 mRNA/GAPDH mRNA level in rat visceral fat: solvent 1.0, sham 1.0
Experimental: as §1, §2, §5
Thus, UCP-1 mRNA levels in rat visceral fat were also measured for the purpose of confirmation.

ORX rats [5] = assay: Prostate weight in ORX rats (virilization effect); details: for Prostate weight: 21 days, solvent 10.2, sham 132.5; for Change in prostate weight (in words): doses of 1 to 10 mg/kg body weight
Experimental: The virilization effect of compounds was studied by using the changes in prostate weight during administration of the compounds to ORX rats as an indicator of virilization effect.
as §1, §2

ORX rats [6] = assay: Plasma insulin level in ORX rats; details: for Effect on insulin levels (in words): 1 and 10 mg/Kg; for Plasma insulin concentration: solvent 1.0, sham 1.6
From the text: as §2, with “Starting on the day after surgery, the animals were subcutaneously injected once a day with an injection solution of the test compound (prepared by dissolving the test compound in a small amount of DMSO and diluting with olive oil for animal testing (consisting of 95% olive oil and 5% DMSO)) at the rate of 0.1 ml/100 g of body weight.” left out
The inventors of the present invention measured total plasma adiponectin levels in ORX rats treated in the aforementioned section (4)-1). Plasma insulin levels were also measured simultaneously.

CPT-1 mRNA = CPT-1 mRNA level in liver and visceral fat of ORX rats
From the text: as §2, with “Starting on the day after surgery, the animals were subcutaneously injected once a day with an injection solution of the test compound (prepared by dissolving the test compound in a small amount of DMSO and diluting with olive oil for animal testing (consisting of 95% olive oil and 5% DMSO)) at the rate of 0.1 ml/100 g of body weight.” left out
as §5
In addition, mRNA levels of insulin receptor substrate 2 (IRS-2) in the liver were also measured.

[7] = liver, 1 mg/Kg, solvent 1.4, sham 1.0
[8] = liver, 10 mg/Kg, solvent 1.4, sham 1.0
[9] = visceral fat, 1 mg/Kg, solvent 1.7, sham 1.0
[10] = visceral fat, 10 mg/Kg, solvent 1.7, sham 1.0

| SMILES | Femoral BMD (ORX rats [1]; 1 mg/Kg) | Femoral BMD (ORX rats [1]; 10 mg/Kg) | Vertebral BMD (ORX rats [2]; 1 mg/Kg) | Vertebral BMD (ORX rats [2]; 10 mg/Kg) | Anal levator muscle weight (ORX rats [3]; 1 mg/Kg s.c. once a day) | Anal levator muscle weight (ORX rats [3]; 10 mg/Kg s.c. once a day) | Change in anal levator muscle weight (in words) (ORX rats [3]) | Effect on triglyceride levels (in words) (ORX rats [4]) | PPARδ mRNA/GAPDH mRNA in anal levator muscle (PPARδ mRNA; 1 mg/Kg) | PPARδ mRNA/GAPDH mRNA in anal levator muscle (PPARδ mRNA; 10 mg/Kg) | Effect on PPARδ mRNA expression in anal levator muscle (in words) (PPARδ mRNA) | Effect on visceral fat UCP-1 mRNA levels (in words) (UCP-1 mRNA) | UCP-1 mRNA/GAPDH mRNA level in rat visceral fat (UCP-1 mRNA; 1 mg/Kg) | UCP-1 mRNA/GAPDH mRNA level in rat visceral fat (UCP-1 mRNA; 10 mg/Kg) | Prostate weight (ORX rats [5]; 1 mg/Kg s.c. once a day) | Prostate weight (ORX rats [5]; 10 mg/Kg s.c. once a day) | Change in prostate weight (in words) (ORX rats [5]) | Effect on insulin levels (in words) (ORX rats [6]) | CPT-1 mRNA/GAPDH mRNA level (CPT-1 mRNA; [7]) | CPT-1 mRNA/GAPDH mRNA level (CPT-1 mRNA; [8]) | further results |
| --- | --- | --- | --- | --- | --- | --- | --- | --- | --- | --- | --- | --- | --- | --- | --- | --- | --- | --- | --- | --- | --- |
| C[C@]12CCC(=O)C[C@@H]1CC[C@@H]1[C@@H]2CC[C@]2(C)[C@@H](O)CC[C@@H]12 [Dihydrotestosterone, 5α-dihydrotestosterone, reference compound] | 472.0 mg/mL | 473.6 mg/mL | 768.4 mg/mL | 763.2 mg/mL | 93.8^## mg/100 g body weight | 120.6**^,## mg/100 g body weight | weights increased beyond those in the case of the sham treated rats | raised triglyceride levels | 0.9 | 0.5 | inhibited this expression dose-dependently | had hardly any effect on UCP-1 mRNA levels | 0.8 | 0.9 | 168.6**^,## mg/100 g of body weight | 216.9*^,## mg/100 g of body weight | increased dose-dependently | increased the insulin levels | 1.3 | 0.4 | Effect on vertebral BMD (in words) (ORX rats [2]; 1 and 10 mg/Kg): did not have an effect on vertebral BMD; CPT-1 mRNA/GAPDH mRNA level (CPT-1 mRNA; [9]): 1.7; CPT-1 mRNA/GAPDH mRNA level (CPT-1 mRNA; [10]): 0.8 |
| CC(=O)[C@H]1CCC2C3CCc4c(C)cccc4C3CC[C@@]21C (stereo partly shown) [Compound of formula (Ia)] | 447.2 mg/mL | 454.0 mg/mL | 769.5 mg/mL | 770.3 mg/mL | 59.1^ mg/100 g body weight | 66.2* mg/100 g body weight | increased significantly to a similar level to that observed in the sham treatment group | lowered triglyceride levels considerably | 0.9 | 1.7* | enhanced this expression | this increase was not significant | 1.7 | 1.5 | 11.1** mg/100 g of body weight | 13.3** mg/100 g of body weight | did not increase | this activity was milder | 3.2**^,# | 4.2* | Femoral BMD (ORX rats [1]; 30 mg/Kg): 475.9 mg/mL; Vertebral BMD (ORX rats [2]; 30 mg/Kg): 775.1 mg/mL; Plasma triglyceride concentration (ORX rats [4]; 1 mg/Kg): 41.3** mg/dL; Plasma triglyceride concentration (ORX rats [4]; 10 mg/Kg): 39.3** mg/dL; Plasma insulin concentration (ORX rats [6]; 1 mg/Kg): 1.5 µg/mL; Plasma insulin concentration (ORX rats [6]; 10 mg/Kg): 2.9 µg/mL; CPT-1 mRNA levels (in words) (CPT-1 mRNA; liver and visceral fat): higher in comparison with dihydrotestosterone; CPT-1 mRNA/GAPDH mRNA level (CPT-1 mRNA; [9]): 2.0; CPT-1 mRNA/GAPDH mRNA level (CPT-1 mRNA; [10]): 2.6 |
